Results: patent US11178869B2, “Microbiocidal quinoline (thio)carboxamide derivatives” (priority 2017, dated 2021)

Tests used:
[1] = test system: Botryotinia fuckeliana (Botrytis cinerea); test: Botryotinia fuckeliana (Botrytis cinerea) / liquid culture (gray mould); assay type: cell-based; details: 72 h, 200 ppm, compared to untreated control, growth inhibition photometrically 3-4 days after application, read-out: disease control
[2] = test system: Magnaporthe grisea (Pyricularia oryzae); test: microbe, parasite or virus in culture; assay type: cell-based; details: read-out: control of Magnaporthe grisea
Pyrenophora teres = Pyrenophora teres / barley / leaf disc preventative (net blotch); assay type: in vivo, Pyrenophora teres on barley leaf segments cv. Hasso; details: foliar, barley leaf segments, compared to untreated control, 5-7 days after application
Fusarium culmorum [3] = test: microbe, parasite or virus in culture; assay type: cell-based; details: read-out: disease control
[4] = test system: Monographella nivalis (Microdochium nivale); test: Monographella nivalis (Microdochium nivale) / liquid culture (foot rot cereals); assay type: cell-based; details: 200 ppm, compared to untreated control, growth inhibition photometrically 4-5 days after application, read-out: disease control
Sclerotinia sclerotiorum = Sclerotinia sclerotiorum / liquid culture (cottony rot); details: read-out: control of Sclerotinia sclerotiorum
Protocol: Sclerotinia sclerotiorum/Liquid Culture (Cottony Rot)
Mycelia fragments of a newly grown liquid culture of the fungus are directly mixed into nutrient broth (Vogels broth). After placing a (DMSO) solution of test compound into a microtiter plate (96-well format) the nutrient broth containing the fungal material is added. The test plates are incubated at 24° C. and the inhibition of growth is determined photometrically 3-4 days after application.

Gaeumannomyces graminis = Gaeumannomyces graminis / liquid culture (take-all of cereals); assay type: cell-based; details: compared to untreated control, 4-5 days after application
[5] = test system: Glomerella lagenarium (Colletotrichum lagenarium); test: Glomerella lagenarium (Colletotrichum lagenarium) / liquid culture (anthracnose); assay type: cell-based; details: Colletotrichum orbiculare; 200 ppm; compared to untreated control; growth inhibition photometrically 3-4 days after application; read-out: disease control
Fusarium culmorum [6] = test: whole plant or invertebrate; assay type: in vivo, Fusarium culmorum on wheat spikelets cv. Monsun; details: in Triticum aestivum, 144 h, read-out: control of Fusarium culmorum

**Q.** For `Cc1cccc2cc(C(=O)NC(C#Cc3ccccc3)C(C)C)cnc12` (stereo not shown) [Compound F-1, N-(1-isopropyl-3-phenyl-prop-2-ynyl)-8-methyl-quinoline-3-carboxamide], which inhibition of growth at 200 ppm [1] is on record?
**A.** ≥ 80%

**Q.** What about the inhibition of growth at 20 ppm [2] of the same compound?
**A.** ≥ 80%

**Q.** And the pest or weed control at 200 ppm (Pyrenophora teres)?
**A.** ≥ 80%

**Q.** And the inhibition of growth at 200 ppm (Fusarium culmorum [3])?
**A.** ≥ 80%

**Q.** And the inhibition of growth at 200 ppm [4]?
**A.** ≥ 80%

**Q.** Which pest or weed control at 200 ppm (Pyrenophora teres) does the source give for `CC(C)C(C#Cc1ccccc1)NC(=O)c1cnc2c(Cl)cccc2c1` (stereo not shown) [Compound F-2, 8-chloro-N-(1-isopropyl-3-phenyl-prop-2-ynyl)quinoline-3-carboxamide] here?
**A.** ≥ 80%

**Q.** What about the inhibition of growth at 200 ppm (Fusarium culmorum [3]) of the same compound?
**A.** ≥ 80%

**Q.** And the inhibition of growth at 200 ppm [4]?
**A.** ≥ 80%

**Q.** What about the melting point of the same compound?
**A.** 168 to 170 °C

**Q.** With `CC(C)(C)C(C#Cc1ccccc1)NC(=O)c1cnc2c(F)cccc2c1` (stereo not shown) [Compound F-5, N-(1-tert-butyl-3-phenyl-prop-2-ynyl)-8-fluoro-quinoline-3-carboxamide] as the compound, how does the inhibition of growth at 200 ppm [1] read?
**A.** ≥ 80%

**Q.** And the inhibition of growth at 20 ppm [2]?
**A.** ≥ 80%

**Q.** What about the inhibition of growth at 20 ppm (Sclerotinia sclerotiorum) of the same compound?
**A.** ≥ 80%

**Q.** And the inhibition of growth at 200 ppm (Fusarium culmorum [3])?
**A.** ≥ 80%

**Q.** What about the inhibition of growth at 20 ppm (Gaeumannomyces graminis) of the same compound?
**A.** ≥ 80%

**Q.** What about the inhibition of growth at 200 ppm [4] of the same compound?
**A.** ≥ 80%

**Q.** What about the melting point of the same compound?
**A.** 179 to 181 °C

**Q.** What about the inhibition of growth at 200 ppm [5] of the same compound?
**A.** ≥ 80%

**Q.** With `CC(C)CC(C)(C#Cc1ccccc1)NC(=O)c1cnc2c(F)cccc2c1` (stereo not shown) [Compound F-7, N-[1,3-dimethyl-1-(2-phenylethynyl)butyl]-8-fluoro-quinoline-3-carboxamide] as the compound, how does the pest or weed control at 200 ppm (Fusarium culmorum [6]) read?
**A.** ≥ 80%

**Q.** What about the inhibition of growth at 200 ppm [1] of the same compound?
**A.** ≥ 80%

**Q.** And the inhibition of growth at 20 ppm [2]?
**A.** ≥ 80%

**Q.** What about the inhibition of growth at 20 ppm (Sclerotinia sclerotiorum) of the same compound?
**A.** ≥ 80%

**Q.** And the inhibition of growth at 200 ppm (Fusarium culmorum [3])?
**A.** ≥ 80%

**Q.** What about the inhibition of growth at 20 ppm (Gaeumannomyces graminis) of the same compound?
**A.** ≥ 80%

**Q.** What about the inhibition of growth at 200 ppm [4] of the same compound?
**A.** ≥ 80%

**Q.** What about the melting point of the same compound?
**A.** 138 to 141 °C

**Q.** And the inhibition of growth at 200 ppm [5]?
**A.** ≥ 80%

**Q.** Which pest or weed control at 200 ppm (Fusarium culmorum [6]) does the source give for `CCC(C)(C#Cc1ccccc1)NC(=O)c1cnc2c(C)cccc2c1` (stereo not shown) [Compound F-9, N-(1-ethyl-1-methyl-3-phenyl-prop-2-ynyl)-8-methyl-quinoline-3-carboxamide] here?
**A.** ≥ 80%

**Q.** And the inhibition of growth at 200 ppm [1]?
**A.** ≥ 80%

**Q.** And the inhibition of growth at 20 ppm [2]?
**A.** ≥ 80%

**Q.** And the inhibition of growth at 20 ppm (Sclerotinia sclerotiorum)?
**A.** ≥ 80%

**Q.** What about the inhibition of growth at 200 ppm (Fusarium culmorum [3]) of the same compound?
**A.** ≥ 80%

**Q.** And the inhibition of growth at 200 ppm [4]?
**A.** ≥ 80%

**Q.** And the melting point?
**A.** 135 to 137 °C

**Q.** What about the inhibition of growth at 200 ppm [5] of the same compound?
**A.** ≥ 80%

**Q.** Which pest or weed control at 200 ppm (Fusarium culmorum [6]) does the source give for `CCC(C)(C#Cc1ccccc1)NC(=O)c1cnc2c(C#N)cccc2c1` (stereo not shown) [Compound F-10, 8-cyano-N-(1-ethyl-1-methyl-3-phenyl-prop-2-ynyl)quinoline-3-carboxamide] here?
**A.** ≥ 80%

**Q.** And the inhibition of growth at 200 ppm [1]?
**A.** ≥ 80%

**Q.** What about the inhibition of growth at 20 ppm [2] of the same compound?
**A.** ≥ 80%

**Q.** And the inhibition of growth at 20 ppm (Sclerotinia sclerotiorum)?
**A.** ≥ 80%

**Q.** What about the inhibition of growth at 200 ppm (Fusarium culmorum [3]) of the same compound?
**A.** ≥ 80%

**Q.** What about the inhibition of growth at 20 ppm (Gaeumannomyces graminis) of the same compound?
**A.** ≥ 80%

**Q.** What about the inhibition of growth at 200 ppm [4] of the same compound?
**A.** ≥ 80%

**Q.** And the melting point?
**A.** 172 to 174 °C

**Q.** And the inhibition of growth at 200 ppm [5]?
**A.** ≥ 80%

**Q.** Which results are given for `CCC(C)(C#Cc1ccccc1)NC(=O)c1cnc2c(Cl)cccc2c1` (stereo not shown) [Compound F-11, 8-chloro-N-(1-ethyl-1-methyl-3-phenyl-prop-2-ynyl)quinoline-3-carboxamide]?
**A.** pest or weed control at 200 ppm (Fusarium culmorum [6]): ≥ 80%; inhibition of growth at 200 ppm [1]: ≥ 80%; inhibition of growth at 20 ppm [2]: ≥ 80%; inhibition of growth at 20 ppm (Sclerotinia sclerotiorum): ≥ 80%; pest or weed control at 200 ppm (Pyrenophora teres): ≥ 80%; inhibition of growth at 200 ppm (Fusarium culmorum [3]): ≥ 80%; inhibition of growth at 200 ppm [4]: ≥ 80%; melting point: 161 to 162 °C; inhibition of growth at 200 ppm [5]: ≥ 80%

**Q.** With `CCC(C)(C#Cc1ccccc1)NC(=O)c1cnc2c(F)cccc2c1` (stereo not shown) [Compound F-17, N-(1-ethyl-1-methyl-3-phenyl-prop-2-ynyl)-8-fluoro-quinoline-3-carboxamide] as the compound, how does the pest or weed control at 200 ppm (Fusarium culmorum [6]) read?
**A.** ≥ 80%

**Q.** What about the inhibition of growth at 200 ppm [1] of the same compound?
**A.** ≥ 80%

**Q.** And the inhibition of growth at 20 ppm [2]?
**A.** ≥ 80%

**Q.** What about the pest or weed control at 200 ppm (Pyrenophora teres) of the same compound?
**A.** ≥ 80%

**Q.** What about the inhibition of growth at 200 ppm (Fusarium culmorum [3]) of the same compound?
**A.** ≥ 80%

**Q.** And the inhibition of growth at 200 ppm [4]?
**A.** ≥ 80%

**Q.** What about the melting point of the same compound?
**A.** 129 to 132 °C

**Q.** And the inhibition of growth at 200 ppm [5]?
**A.** ≥ 80%

**Q.** Which inhibition of growth at 200 ppm [1] does the source give for `Cc1ccc(C#CC(C)(C)NC(=O)c2cnc3c(F)cccc3c2)cc1` [Compound F-21, N-[1,1-dimethyl-3-(p-tolyl)prop-2-ynyl]-8-fluoro-quinoline-3-carboxamide] here?
**A.** ≥ 80%

**Q.** And the pest or weed control at 200 ppm (Pyrenophora teres)?
**A.** ≥ 80%

**Q.** And the inhibition of growth at 200 ppm (Fusarium culmorum [3])?
**A.** ≥ 80%

**Q.** What about the inhibition of growth at 200 ppm [4] of the same compound?
**A.** ≥ 80%

**Q.** What about the inhibition of growth at 200 ppm [5] of the same compound?
**A.** ≥ 80%

**Q.** For `COc1cccc(C#CC(C)(C)NC(=O)c2cnc3c(F)cccc3c2)c1` [Compound F-29, 8-fluoro-N-[3-(3-methoxyphenyl)-1,1-dimethyl-prop-2-ynyl]quinoline-3-carboxamide], which pest or weed control at 200 ppm (Fusarium culmorum [6]) is on record?
**A.** ≥ 80%

**Q.** And the inhibition of growth at 200 ppm [1]?
**A.** ≥ 80%

**Q.** And the pest or weed control at 200 ppm (Pyrenophora teres)?
**A.** ≥ 80%

**Q.** What about the inhibition of growth at 200 ppm (Fusarium culmorum [3]) of the same compound?
**A.** ≥ 80%

**Q.** What about the inhibition of growth at 200 ppm [4] of the same compound?
**A.** ≥ 80%

**Q.** What about the inhibition of growth at 200 ppm [5] of the same compound?
**A.** ≥ 80%

**Q.** Which inhibition of growth at 200 ppm [1] does the source give for `Cc1ccc(C#CC(C)(C)NC(=O)c2cnc3c(F)cccc3c2)s1` [Compound F-35, N-[1,1-dimethyl-3-(5-methyl-2-thienyl)prop-2-ynyl]-8-fluoro-quinoline-3-carboxamide] here?
**A.** ≥ 80%

**Q.** And the pest or weed control at 200 ppm (Pyrenophora teres)?
**A.** ≥ 80%

**Q.** What about the inhibition of growth at 200 ppm (Fusarium culmorum [3]) of the same compound?
**A.** ≥ 80%

**Q.** What about the inhibition of growth at 200 ppm [4] of the same compound?
**A.** ≥ 80%

**Q.** For `CC(C)(C#Cc1ccccc1)NC(=O)c1cnc2c(F)cccc2c1` [Compound F-55, N-(1,1-dimethyl-3-phenyl-prop-2-ynyl)-8-fluoro-quinoline-3-carboxamide], which inhibition of growth at 200 ppm [1] is on record?
**A.** ≥ 80%

**Q.** And the pest or weed control at 200 ppm (Pyrenophora teres)?
**A.** ≥ 80%

**Q.** What about the inhibition of growth at 200 ppm (Fusarium culmorum [3]) of the same compound?
**A.** ≥ 80%

**Q.** What about the inhibition of growth at 20 ppm (Gaeumannomyces graminis) of the same compound?
**A.** ≥ 80%

**Q.** And the inhibition of growth at 200 ppm [4]?
**A.** ≥ 80%

**Q.** And the melting point?
**A.** 151 to 155 °C

**Q.** And the inhibition of growth at 200 ppm [5]?
**A.** ≥ 80%

**Q.** Which results are given for `CC(C)C[C@@H](C#Cc1ccccc1)NC(=O)c1cnc2c(F)cccc2c1` [Compound G-4, 8-fluoro-N-[(1S)-3-methyl-1-(2-phenylethynyl)butyl]quinoline-3-carboxamide]?
**A.** pest or weed control at 200 ppm (Fusarium culmorum [6]): ≥ 80%; inhibition of growth at 200 ppm [1]: ≥ 80%; inhibition of growth at 20 ppm [2]: ≥ 80%; pest or weed control at 200 ppm (Pyrenophora teres): ≥ 80%; inhibition of growth at 200 ppm (Fusarium culmorum [3]): ≥ 80%; inhibition of growth at 20 ppm (Gaeumannomyces graminis): ≥ 80%; inhibition of growth at 200 ppm [5]: ≥ 80%

**Q.** With `CC(C)C[C@@](C)(C#Cc1ccccc1)NC(=O)c1cnc2c(F)cccc2c1` [Compound G-5, N-[(1S)-1,3-dimethyl-1-(2-phenylethynyl)butyl]-8-fluoro-quinoline-3-carboxamide] as the compound, how does the inhibition of growth at 200 ppm [1] read?
**A.** ≥ 80%

**Q.** What about the inhibition of growth at 20 ppm [2] of the same compound?
**A.** ≥ 80%

**Q.** And the inhibition of growth at 20 ppm (Sclerotinia sclerotiorum)?
**A.** ≥ 80%

**Q.** What about the inhibition of growth at 200 ppm (Fusarium culmorum [3]) of the same compound?
**A.** ≥ 80%

**Q.** And the inhibition of growth at 20 ppm (Gaeumannomyces graminis)?
**A.** ≥ 80%

**Q.** What about the inhibition of growth at 200 ppm [4] of the same compound?
**A.** ≥ 80%

**Q.** And the melting point?
**A.** 124 to 127 °C

**Q.** And the inhibition of growth at 200 ppm [5]?
**A.** ≥ 80%
